Like-named read-outs stand apart in the source and are kept apart here.
How the values were obtained:
[1] = Isoelectric point (pI) of the insulinotropic peptide; assay type: physicochemical
Source text: The pI of a protein can be determined experimentally by electrophoresis techniques such as electrofocusing:
A pH gradient is established in an anticonvective medium, such as a polyacrylamide gel. When a protein is introduced in to the system it will migrate under influence of an electric field applied across the gel. Positive charged proteins will migrate to the cathode. Eventually, the migrating protein reaches a point in the pH gradient where its net electrical charge is zero and is said to be focused. This is the isoelectric pH (pI) of the protein. The protein is then fixed on the gel and stained. The pI of the protein can then be determined by comparison of the position of the protein on the gel relative to marker molecules with known pI values.

[2] = cited from earlier work
[3] = protic, very hydrophilic and polar solvents; lyophilized from aqueous solution of pH 6.0; cited from earlier work

Compound | Dielectricity constant, ε* ([2]; 293.2 Kelvin) | also measured
Arg34, Lys26(N∈-(γ-Glu(Na-hexadecanoyl)))-GLP-1(7-37) | – | pI [1]: 5.6
CC(O)CCO (stereo not drawn) [1,3-butanediol] | 28.8 | –
CC(C)O [Isopropanol] | 20.18 | –
CO [Methanol] | 33.0 | –
lysozyme: lysozyme lyophilized from aqueous solution of pH 6.0 (Klibanov et al) | – | solubility [3]: more than 10 mg/ml
CCO [Ethanol] | 25.3 | –
OCCCO [1,3-propanediol] | 35.1 | –
CC(O)CO (stereo not drawn) [1,2-propanediol [propylene glycol], 1,2-propanediol] | – | Dielectricity constant, ε* ([2]; 303.2 Kelvin): 27.5
O [Water] | 80.1 | –
